The values below come from patent US6713475B2, “Tricyclic benzodiazepines as vasopressin receptor antagonists” (Ortho-McNeil Pharmaceutical, Inc., priority 1999, dated 2004).

The target in one experiment is T1, human V-1 receptor (Homo sapiens, UniProt P37288).
T1 construct: expressed in transfected cells; host or cells: HEK-293
Briefly: In vitro recombinant vasopressin receptor binding assay (V1 Bdg), displacement of 3H-arginine vasopressin. The following applies: for inhibition at 0.1 µM: read-out: V1 Bdg (% inh, 0.1 uM); for V1 Bdg % inh: 1 uM. As to the method:
(§1) In vitro Recombinant Vasopressin Receptor Binding Assay
(§2) Compounds were assessed for their ability to displace ^3H-arginine vasopressin from the human V-1 or V-2 receptor in HEK-293 cells. Assay buffer is 50 mM Tris-Cl, 5 mM MgCl2, 0.1% BSA (pH 7.5) containing 5 ug/ml of aprotinin, leupeptin, pepstatin, 50 ug/ml bacitracin, and 1 mM Pefabloc. ^3H-vasopressin is ^3H-arginine-8-vasopressin (68.5 Ci/mmol, final concentration in assay is 0.65-0.75 nM). Into wells of 96-well round bottom polypropylene plates were added buffer, test compound, membrane (containing cloned human V-1 or V-2 receptor), and ^3H-vasopressin. The reaction plates were allowed to sit at room temperature for one hour. The samples were filtered through Unifilter GF/C plates (presoaked in 0.3 polyethyleneimine). The plates were washed 5 times with cold physiological saline containing 0.05% Tween 20. After drying, the bottom of the filter plates were sealed and 0.025 ml of Microscint-20 was added to each filter. The top of the plate was sealed, and the plate was counted. Non-specific binding was determined by the addition of 1.25 uM arginine-8-vasopressin in those wells.
For orientation: Loss of bound radioactivity is the signal in a displacement assay; it reports binding, not function.

The target in the next experiment is V2 (Homo sapiens, UniProt P30518). Briefly: In vitro recombinant vasopressin receptor binding assay (V2 Bdg), displacement of 3H-arginine vasopressin. To be noted: for IC50: membrane with cloned human V-2 receptor (HEK-293); for V2 Bdg % inh: 0.1 uM, printed in parentheses in place of IC50. More on the design: expressed in transfected cells; host or cells: HEK-293. As for the experimental part:
as §1
as §2, with “Assay buffer is 50 mM Tris-Cl, 5 mM MgCl2, 0.1% BSA (pH 7.5) containing 5 ug/ml of aprotinin, leupeptin, pepstatin, 50 ug/ml bacitracin, and 1 mM Pefabloc. ^3H-vasopressin is ^3H-arginine-8-vasopressin (68.5 Ci/mmol, final concentration in assay is 0.65-0.75 nM).” left out, “counted.” for “counted. Non-specific binding was determined by the addition of 1.25 uM arginine-8-vasopressin in those wells.”

T1 sequence (P37288 whole entry): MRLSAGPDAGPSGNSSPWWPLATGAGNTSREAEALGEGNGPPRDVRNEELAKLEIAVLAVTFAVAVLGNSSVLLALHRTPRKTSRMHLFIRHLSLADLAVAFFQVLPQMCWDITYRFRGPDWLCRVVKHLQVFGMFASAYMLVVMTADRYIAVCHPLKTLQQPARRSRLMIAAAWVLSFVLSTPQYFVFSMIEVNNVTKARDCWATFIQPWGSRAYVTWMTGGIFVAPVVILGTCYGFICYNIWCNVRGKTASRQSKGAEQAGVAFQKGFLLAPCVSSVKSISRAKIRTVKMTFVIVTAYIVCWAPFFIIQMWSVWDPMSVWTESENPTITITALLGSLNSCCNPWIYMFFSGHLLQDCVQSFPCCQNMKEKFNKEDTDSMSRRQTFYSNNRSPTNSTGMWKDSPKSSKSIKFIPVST

By IC50 is commonly meant the midpoint of a concentration-inhibition curve. Regarding `Cc1csc(-c2cc(F)ccc2C(=O)Nc2ccc(C(=O)N3CC4COCCN4Cc4ccccc43)c(Cl)c2)c1` (racemic) [Compound 9, (RS)-2-(4-Methyl-2-thienyl)-4-fluoro-N-[3-chloro-4-(1,3,4,12a-tetrahydro-6H-[1,4]oxazino[4,3-a][1,4]-benzodiazepin-11(12H)-yl-carbonyl)phenyl]benzamide], the inhibition at 0.1 µM at human V-1 receptor was 18%. The IC50 at V2 turned out to be 11 nM.
As for `Cc1cccc(C)c1C(=O)Nc1ccc(C(=O)N2CC3COCCN3Cc3ccccc32)c(Cl)c1` (racemic) [Compound 10, (RS)-2,6-Dimethyl-N-[3-chloro-4-(1,3,4,12a-tetrahydro-6H-[1,4]oxazino[4,3-a][1,4]-benzodiazepin-11(12H)-yl-carbonyl)phenyl]benzamide], the inhibition at 0.1 µM on human V-1 receptor came out at 15%. In addition, at V2, the IC50 is 9 nM.
In the case of `Cc1cccc(C(=O)Nc2ccc(C(=O)N3CC4COCCN4Cc4ccccc43)c(Cl)c2)c1C` (racemic) [Compound 11, (RS)-2,3-Dimethyl-N-[3-chloro-4-(1,3,4,12a-tetrahydro-6H-[1,4]oxazino[4,3-a][1,4]-benzodiazepin-11(12H)-yl-carbonyl)phenyl]benzamide], the inhibition at 0.1 µM at human V-1 receptor is 11%. Besides, on V2, the IC50 is 8 nM.
On to `COc1cc(NC(=O)c2ccccc2-c2ccccc2)ccc1C(=O)N1CC2COCCN2Cc2ccccc21` (racemic) [Compound 14, (RS)-2-Phenyl-N-[3-methoxy-4-(1,3,4,12a-tetrahydro-6H-[1,4]oxazino[4,3-a][1,4]-benzodiazepin-11(12H)-yl-carbonyl)phenyl]benzamide], for which the inhibition at 0.1 µM at human V-1 receptor was 36%. In addition, the IC50 at V2 was 9 nM.
The corresponding values for `COc1cc(C(=O)N2CC3COCCN3Cc3ccccc32)ccc1NC(=O)c1ccccc1-c1ccccc1` (racemic) [Compound 15, (RS)-2-Phenyl-N-[2-methoxy-4-(1,3,4,12a-tetrahydro-6H-[1,4]oxazino[4,3-a][1,4]-benzodiazepin-11(12H)-yl-carbonyl)phenyl]benzamide] are 69% and 13 nM.
In the case of `COc1cc(C(=O)N2CC3CN(C)CCN3Cc3ccccc32)ccc1NC(=O)c1ccccc1C` (racemic) [Compound 71, (RS)-2-Methyl-N-[2-methoxy-4-(1,3,4,12a-tetrahydro-2-methyl-6H-[1,4]pyrazino[4,3-a][1,4]-benzodiazepin-11(12H)-yl-carbonyl)phenyl]benzamide], the “V1 Bdg % inh” value at human V-1 receptor is recorded as “(12%/1 uM)”.
Consider `Cc1cc(NC(=O)c2ccccc2-c2ccccc2)ccc1C(=O)N1CC2CSCCN2Cc2ccccc21` (racemic) [Compound 107, (RS)-2-Phenyl-N-[3-methyl-4-(1,3,4,12a-tetrahydro-6H-[1,4]thiazino[4,3-a][1,4]-benzodiazepin-11(12H)-yl-carbonyl)phenyl]benzamide], for which, on V2, the IC50 was found to be 21 nM.
On to `COc1cc(NC(=O)c2ccccc2-c2ccccc2)ccc1C(=O)N1CC2CSCCN2Cc2ccccc21` (racemic) [Compound 108, (RS)-2-Phenyl-N-[3-methoxy-4-(1,3,4,12a-tetrahydro-6H-[1,4]thiazino[4,3-a][1,4]-benzodiazepin-11(12H)-yl-carbonyl)phenyl)benzamide], for which the IC50 on V2 amounted to 32 nM.
Same read-out and setting: next, `O=C(Nc1ccc(C(=O)N2CC3CSCCN3Cc3ccccc32)c(O)c1)c1ccccc1-c1ccccc1` (racemic) [Compound 109, (RS)-2-Phenyl-N-[3-hydroxy-4-(1,3,4,12a-tetrahydro-6H-[1,4]thiazino[4,3-a][1,4]-benzodiazepin-11(12H)-yl-carbonyl)phenyl]benzamide]: 7 nM; `Cc1ccc(F)cc1C(=O)Nc1ccc(C(=O)N2CC3COCCN3Cc3ccccc32)c(Cl)c1` (racemic) [Compound 110, (RS)-2-Methyl-5-fluoro-N-[3-chloro-4-(1,3,4,12a-tetrahydro-6H-[1,4]oxazino[4,3-a][1,4]-benzodiazepin-11(12H)-yl-carbonyl)phenyl]benzamide]: 6 nM; `O=C(Nc1ccc(C(=O)N2CC3COCCN3Cc3ccccc32)c(Cl)c1)c1cc(F)ccc1-c1ccccc1` (racemic) [Compound 111, (RS)-2-Phenyl-5-fluoro-N-[3-chloro-4-(1,3,4,12a-tetrahydro-6H-[1,4]oxazino[4,3-a][1,4]-benzodiazepin-11(12H)-yl-carbonyl)phenyl]benzamide]: 23 nM.
As to `COc1ccc(-c2ccccc2C(=O)Nc2ccc(C(=O)N3CC4COCCN4Cc4ccccc43)c(Cl)c2)cc1` (racemic) [Compound 112, (RS)-2-(4-Methoxy-phenyl)-N-[3-chloro-4-(1,3,4,12a-tetrahydro-6H-[1,4]oxazino[4,3-a][1,4]-benzodiazepin-11(12H)-yl-carbonyl)phenyl]benzamide], at V2, the IC50 was determined as 6 nM.
Consider `COc1cccc(-c2ccccc2C(=O)Nc2ccc(C(=O)N3CC4COCCN4Cc4ccccc43)c(Cl)c2)c1` (racemic) [Compound 113, (RS)-2-(3-Methoxy-phenyl)-N-[3-chloro-4-(1,3,4,12a-tetrahydro-6H-[1,4]oxazino[4,3-a][1,4]-benzodiazepin-11(12H)-yl-carbonyl)phenyl]benzamide], for which the IC50 on V2 came to 8 nM.
For `O=C(Nc1ccc(C(=O)N2CC3COCCN3Cc3ccccc32)c(Cl)c1)c1ccc(F)cc1-c1ccccc1` (racemic) [Compound 114, (RS)-2-Phenyl-4-fluoro-N-[3-chloro-4-(1,3,4,12a-tetrahydro-6H-[1,4]oxazino[4,3-a][1,4]-benzodiazepin-11(12H)-yl-carbonyl)phenyl]benzamide], the IC50 on V2 was 4 nM.
The same measure, in the same setting: with `COc1ccc(C(=O)Nc2ccc(C(=O)N3CC4COCCN4Cc4ccccc43)c(Cl)c2)c(-c2ccccc2)c1` (racemic) [Compound 115, (RS)-2-Phenyl-4-methoxy-N-[3-chloro-4-(1,3,4,12a-tetrahydro-6H-[1,4]oxazino[4,3-a][1,4]-benzodiazepin-11(12H)-yl-carbonyl)phenyl]benzamide] the figure was 9 nM; with `COc1ccc(-c2ccccc2)c(C(=O)Nc2ccc(C(=O)N3CC4COCCN4Cc4ccccc43)c(Cl)c2)c1` (racemic) [Compound 116, (RS)-2-Phenyl-5-methoxy-N-[3-chloro-4-(1,3,4,12a-tetrahydro-6H-[1,4]oxazino[4,3-a][1,4]-benzodiazepin-11(12H)-yl-carbonyl)phenyl]benzamide], 37 nM.
As for `O=C(Nc1ccc(C(=O)N2C[C@H]3COCCN3Cc3ccccc32)c(Cl)c1)c1ccc(O)cc1-c1ccccc1` [Compound 6, (S)-2-Phenyl-4-hydroxy-N-[3-chloro-4-(1,3,4,12a-tetrahydro-6H-[1,4]oxazino[4,3-a][1,4]-benzodiazepin-11(12H)-yl-carbonyl)phenyl]benzamide], at human V-1 receptor, the inhibition at 0.1 µM was 49%.
In the case of `O=C(Nc1ccc(C(=O)N2C[C@@H]3COCCN3Cc3ccccc32)c(Cl)c1)c1ccccc1-c1ccccc1` [Compound 13, (R)-2-Phenyl-N-[3-chloro-4-(1,3,4,12a-tetrahydro-6H-[1,4]oxazino[4,3-a][1,4]-benzodiazepin-11(12H)-yl-carbonyl)phenyl]benzamide], the IC50 on V2 turned out to be 32 nM.
For the compound `O=C(Nc1ccc(C(=O)N2C[C@H]3CSCCN3Cc3ccccc32)c(Cl)c1)c1ccccc1-c1ccccc1` [Compound 47, (S)-2-Phenyl-N-[3-chloro-4-(1,3,4,12a-tetrahydro-6H-[1,4]thiazino[4,3-a][1,4]-benzodiazepin-11(12H)-yl-carbonyl)phenyl]benzamide], the 50% inhibitory concentration (IC50) at V2 was determined as 11 nM.
As to “(RS)-2,3-Difluoro-N-[3-chloro-4-(1,3,4,12a-tetrahydro-2-methyl-6H-[1,4]pyrazino[4,3-a][1,4]-benzodiazepin-11(12H)-yl-carbonyl)phenyl]benzamide [Compound 101]”, the “V1 Bdg % inh” value on human V-1 receptor is recorded as “(6%/1 uM)”.
In the case of “(RS)-2,6-Dimethyl-N-[3-chloro-4-(1,3,4,12a-tetrahydro-2-methyl-6H-[1,4]pyrazino[4,3-a][1,4]-benzodiazepin-11(12H)-yl-carbonyl)phenyl]benzamide [Compound 63]”, the “V2 Bdg % inh” value on V2 was “(9%/0.1 uM)”.
On to “(RS)-2-(3-Thienyl)-N-[4-(1,3,4,12a-tetrahydro-6H-[1,4]thiazino[4,3-a][1,4]-benzodiazepin-11(12H)-yl-carbonyl)phenyl]benzamide [Compound 49]”, for which the “V2 Bdg % inh” value at V2 is listed as “(59%/0.1 uM)”.
“(RS)-2-Methyl-5-fluoro-N-[3-chloro-4-(1,3,4,12a-tetrahydro-2-methyl-6H-[1,4]pyrazino[4,3-a][1,4]-benzodiazepin-11(12H)-yl-carbonyl)phenyl]benzamide [Compound 94]”: the “V2 Bdg % inh” value on V2 was “(39%/0.1 uM)”.
